The values that follow come from patent US20230114241A1, “METHODS OF TREATING EPILEPSY USING THE SAME” (Trevena, Inc., priority 2019, published 2023).

Test [1] addresses T1, human sphingosine-1-phosphate receptor 1 (S1P1) (Homo sapiens, UniProt P21453). Description: β-Arrestin2 recruitment assay (PathHunter), S1P1 CHO-K1 cells. The class given is cell-based. Particulars: for Emax: efficacy normalized to maximum efficacy of fingolimod, read-out: hS1P1 B-arrestin2 SPAN; for EC50: β-arrestin2 recruitment, read-out: hS1P1 B-arrestin2 pEC50 (converted). The procedure, abridged:
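CHO-K1 cells co-expressing EA-β-arrestin2 and ProLink-tagged human S1P1 plated overnight, then stimulated 60 min at 37 °C. Enzyme-fragment complementation (β-galactosidase) detected after 1 h at room temperature by luminescence; values normalized to fingolimod.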
Target sequence in this assay (P21453 whole entry, the tested form may be a part): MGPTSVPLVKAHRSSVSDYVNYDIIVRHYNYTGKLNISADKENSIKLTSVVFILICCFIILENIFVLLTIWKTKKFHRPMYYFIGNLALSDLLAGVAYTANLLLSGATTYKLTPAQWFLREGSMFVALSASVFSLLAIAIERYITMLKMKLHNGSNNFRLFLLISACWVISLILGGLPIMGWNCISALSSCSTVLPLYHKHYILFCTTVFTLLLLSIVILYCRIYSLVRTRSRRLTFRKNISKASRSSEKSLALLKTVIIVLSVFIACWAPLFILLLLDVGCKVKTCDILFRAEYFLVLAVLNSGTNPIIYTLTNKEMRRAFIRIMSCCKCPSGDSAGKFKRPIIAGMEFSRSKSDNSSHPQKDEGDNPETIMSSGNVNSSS
Target sequence in this assay (P32121 whole entry partner, the tested form may be a part): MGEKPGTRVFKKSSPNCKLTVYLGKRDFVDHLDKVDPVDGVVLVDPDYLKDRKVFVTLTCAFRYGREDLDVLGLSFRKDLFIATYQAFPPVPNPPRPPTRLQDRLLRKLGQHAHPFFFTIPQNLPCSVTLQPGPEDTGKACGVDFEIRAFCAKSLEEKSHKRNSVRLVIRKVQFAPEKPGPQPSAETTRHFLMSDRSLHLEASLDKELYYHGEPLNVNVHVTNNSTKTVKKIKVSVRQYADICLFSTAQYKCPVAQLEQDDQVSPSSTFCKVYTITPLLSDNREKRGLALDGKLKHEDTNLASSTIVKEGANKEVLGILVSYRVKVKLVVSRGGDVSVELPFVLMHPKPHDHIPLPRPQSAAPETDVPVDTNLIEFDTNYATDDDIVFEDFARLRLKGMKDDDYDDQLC

Test [2] addresses T1, human sphingosine-1-phosphate receptor 1 (S1P1). Kind of test: Inhibition of cAMP production (HTRF cAMP HiRange), S1P1 CHO-K1 cells. The class given is cell-based. To be noted: for Emax: CHO-K1, efficacy normalized to maximum efficacy of fingolimod, read-out: hS1P1 CAMP SPAN; for EC50: read-out: hS1P1 CAMP pEC50 (converted). The procedure, abridged: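 CHO-K1 cells co-expressing human S1P1 (C-terminal ProLink tag) and EA-β-arrestin2, plated overnight; after 30 min compound incubation at 37 °C, intracellular cAMP measured by HTRF TR-FRET following 1 h at room temperature. Values normalized to fingolimod.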
Target sequence in this assay (P21453 whole entry, the tested form may be a part): as the sequence (P21453 whole entry, the tested form may be a part) above
(In general: Cyclic AMP is a second messenger, typically raised through Gs and lowered through Gi signalling.)

[3] abbreviates: CHO-K1, β-arrestin2 recruitment.
The mark [4] stands for this setting: inhibition of cAMP production, potency.
Setting [5] is: inhibition of cAMP production, S1P1.

A value given as a limit tells only on which side of the number the result lay.

On to `c1ccc(-c2noc(-c3ccc4c(c3)nnn4C3CCCC3)n2)cc1` [Compound 7, 1-cyclopentyl-5-(3-phenyl-1,2,4-oxadiazol-5-yl)-1H-1,2,3-benzotriazole], for which the Emax in test [1] (setting [3]) and in test [2] (inhibition of cAMP production) was more than 75% in each case. The figures for the EC50 in test [1] (potency) and in test [2] (setting [4]) were more than 10 µM and more than 0.316 µM, respectively.

Regarding `CCC1(CC)CC(=O)c2cc(-c3nc(-c4ccn[nH]4)no3)ccc2O1` [Compound 470, 6-(3-(1H-pyrazol-5-yl)-1,2,4-oxadiazol-5-yl)-2,2-diethyl-chroman-4-one], the Emax in test [1] (CHO-K1) and in test [2] was more than 75% throughout. The figures for the EC50 in test [1] (S1P1) and in test [2] (setting [5]) were more than 10 µM and more than 0.316 µM, respectively.

`N#Cc1cc(-c2nnc(-c3ccc4c(c3)CCC(=O)N4)o2)ccc1NCC(F)F` [Compound 477, 2-[(2,2-difluoroethyl)amino]-5-[5-(2-oxo-1,2,3,4-tetrahydro-quinolin-6-yl)-1,3,4-oxadiazol-2-yl]benzonitrile]: the Emax in test [1] (CHO-K1) was less than 75%; in test [2] it was more than 75%. Moreover, the EC50 is less than 10 µM in test [1] (S1P1) and less than 0.316 µM in test [2] (setting [5]).

`O=C1CC(CO)(CO)Oc2ccc(-c3nc(-c4ccncc4)no3)cc21` [Compound 482, 2,2-bis(hydroxymethyl)-6-[3-(pyridin-4-yl)-1,2,4-oxadiazol-5-yl]-3,4-dihydro-2H-1-benzopyran-4-one]: the Emax was more than 75% in test [1] (CHO-K1) and less than 75% in test [2]. For the same compound, the values for the EC50 in test [1] (S1P1) and in test [2] (setting [5]) were more than 10 µM and more than 0.316 µM, respectively.

Take `C=CCn1nnc2cc(-c3noc(-c4ccccc4Br)n3)ccc21` [Compound 42, 3-(1-allyl-1H-benzo[d][1,2,3]triazol-5-yl)-5-(2-bromo-phenyl)-1,2,4-oxadiazole]: the Emax in test [1] (setting [3]) and in test [2] (inhibition of cAMP production) was more than 75% throughout. Further, the values for the EC50 in test [1] (potency) and in test [2] (setting [4]) were more than 10 µM and more than 0.316 µM, respectively.

For the compound `CCC1(CC)CC(=O)c2cc(-c3noc(-c4cccnc4)n3)ccc2O1` [Compound 559, 2,2-diethyl-6-(5-(pyridin-3-yl)-1,2,4-oxadiazol-3-yl)chroman-4-one], the Emax in test [1] (CHO-K1) and in test [2] was more than 75% throughout. The EC50 in test [1] (S1P1) was less than 10 µM; in test [2] (setting [5]), less than 0.316 µM.

Consider `Cc1ccccc1-c1noc(-c2ccc3scnc3c2)n1` [Compound 362, 5-[3-(2-methylphenyl)-1,2,4-oxadiazol-5-yl]-1,3-benzothiazole], for which the Emax in test [1] (setting [3]) and in test [2] (inhibition of cAMP production) was less than 75% in each case. In addition, the EC50 is more than 10 µM in test [1] (potency) and more than 0.316 µM in test [2] (setting [4]).

As for `N#Cc1cc(-c2nnc(-c3ccc4[nH]c(=O)oc4c3)o2)ccc1NCC1CC1` [Compound 486, 2-[(cyclopropyl-methyl)amino]-5-[5-(2-oxo-2,3-dihydro-1,3-benzoxazol-6-yl)-1,3,4-oxadiazol-2-yl]benzonitrile], the Emax is more than 75% in test [1] (CHO-K1) and less than 75% in test [2]. Moreover, the EC50 was more than 10 µM in test [1] (S1P1) and less than 0.316 µM in test [2] (setting [5]).

As for `COc1ccccc1-c1csc(-c2cnc3c(ccn3C(C)C)c2)n1` [Compound 401, 2-(1-isopropyl-1H-pyrrolo[2,3-b]pyridin-5-yl)-4-(2-methoxy-phenyl)thiazole], the Emax in test [1] (CHO-K1) and in test [2] was less than 75% each time. The EC50 in test [1] (S1P1) was more than 10 µM; in test [2] (setting [5]) it was more than 0.316 µM.

On to `CCC1(CC)CC(=O)c2cc(-c3nc(-c4ccc(F)nc4)no3)ccc2O1` [Compound 546, 2,2-diethyl-6-(3-(6-fluoropyridin-3-yl)-1,2,4-oxadiazol-5-yl)chroman-4-one], for which the Emax in test [1] (CHO-K1) and in test [2] was less than 75% in each case. For the same compound, the EC50 is more than 10 µM in test [1] (S1P1) and more than 0.316 µM in test [2] (setting [5]).

Consider `CCC1(CC)CC(=O)c2cc(-c3nc(-c4ccnc(S(N)(=O)=O)c4)no3)ccc2O1` [Compound 616, 4-(5-(2,2-diethyl-4-oxochroman-6-yl)-1,2,4-oxadiazol-3-yl)pyridine-2-sulfonamide], for which the Emax in test [1] (CHO-K1) and in test [2] was more than 75% throughout. Moreover, the EC50 was less than 10 µM in test [1] (S1P1) and less than 0.316 µM in test [2] (setting [5]).
